# pIC50: −log10 of the molar value. Read-outs that look alike come from different tables or passages of the source.
# How the values were obtained:
# hLMVEC = assay: Growth factor-induced hLMVEC proliferation; type: cell-based, human; conditions: for pIC50: Homo sapiens
# Protocol: hLMVEC were seeded in white cell culture-treated flat and clear bottom multi-well plates and incubated at 37 °C overnight, before compounds were added. After incubation for 72 h at 37 °C, plates were equilibrated to ambient temperature for 1 h, and CellTiterGlo reagent (Promega) was added. After approximately 1h, luminescence was measured using a luminometer. Curves were fitted via sigmoidal dose response curves, and IC50 values were determined.
# ERK phosphorylation = assay: Immunoblot of phosphorylated ERK in NCI-H1703 cells; type: cell-based, human; conditions: 1 μmol/L
# Protocol: For immunoblotting, 2 x 10^5 cells were scraped and lysed with RIPA lysis buffer (Sigma, R0278), supplemented with protease inhibitor cocktail (Ozyme, 5872S). After separation by SDS-PAGE, proteins were transferred to PVDF membranes. Membranes were blocked with 5 % milk in TBS-T for saturation step and incubated with phosphorylated ERK (CellSignaling, 4377, 1:1000) or GAPDH (CellSignaling, 5174, 1:1000) antibodies overnight, followed by an anti-mouse IgG, secondary antibody HRP linked (CellSignaling, 7076, 1:2000) in antibodies buffer (TBS-Tween 0.05 %, 0.1 % BSA) for 2 h. Membranes were washed 3 x 10 min in TBS before adding chemiluminescent substrate (Supersignal West Pico Plus, 54580, ThermoFisher) and imaged by the Pxi6 station (Ozyme).
# DEN-induced liver tumor = assay: N-diethylnitrosamine-induced hepatocarcinoma mouse model; type: in vivo, mice; conditions: daily doses of 100 mg/kg for 2 months
# Protocol: After weighing, 38 male C3/H mice received a 10 mg/kg dose of N-diethylnitrosamine (DEN) intraperitoneally, whereas a group of 5 animals was kept without DEN injection as control group. After 12 months, mice that received DEN injection were randomized by weight in two groups of each 19 animals. The mice were dosed daily orally for 2 months either with EVT801 or vehicle. On the day of termination, mice treated with EVT801 received a last dose of 30 mg/kg to take blood and tumor samples for compound concentration determination. After incision of the peritoneal cavity, blood was taken from the vena cava. Following excision and weighing of the liver, the number of tumors per liver was counted. The tumor burden was calculated as the sum of individual tumor volumes for each mouse. No blood sampling was performed on control and vehicle groups. Plasma and tumor samples were stored at −20°C until analysis. Concentration of EVT801 was determined by LC/MS-MS.
# CT26 tumors = assay: CT26 ectopic tumor mouse model; type: in vivo, mice
# Protocol: BALB/c mice were anesthetized with ketamine (100 mg/kg) combined with xylazine (10 mg/kg) via intraperitoneal injection. A total of 5 × 10^4 CT26 tumor cells were suspended in 200 μL of Matrigel matrix, and then inoculated in the flank of legs. After implantation, mice were randomly separated into two groups. One group received EVT801 by oral gavage and anti-PD-1 by intraperitoneal injection in a volume of 10 mL/kg, whereas the mice in the second group served as control, and were injected with IgG isotype. PD-1 was injected at day 11, day 14, and day 18 after CT26 inoculation. EVT801 was administrated daily by oral route at 30 mg/kg from day 11 until day 21. Tumor volume was measured on days 11, 13, 15, 18, 19 and 21 following tumor cell injection. The selected groups received vehicle or EVT801 orally in a volume of 10 mL/kg. At day 21, 60 mg/kg hypoxyprobe was injected 30 minutes before sacrifice of mice. The tumors were embedded in paraffin for histology studies.
# 4T1 tumors = assay: 4T1 mammary carcinoma mouse model, with anti-PD-1; type: in vivo, mice
# Protocol: The 4T1 mammary carcinoma mouse models were used as reported previously ([26]). Briefly, 1 × 10^5 4T1 cells were implanted into mammary fat pads of BALB/c mice. […] Tumors were measured two to three times weekly with calipers. The tumor volume (V) was calculated using the formula V = 0.52 × a^2 × b (a: smallest tumor diameter; b: largest tumor diameter). The tumors, lungs, and axillary lymph nodes were removed at day 21 for treatment with anti-PD-1, and day 28 for treatment with anti-CTLA-4. The tumors and the lungs were embedded in paraffin for histology studies. […] The metastatic scoring was determined as follows: (0) no metastasis; ([1]) 1 to 20 metastases < 50 μm; ([2]) between 21 and 50 metastases < 50 μm; ([3]) 1 or more metastases > […]; ([4]) 1 or more metastases > […].
# tubule formation = assay: Mouse aortic ring assay stimulated by a 4T1 tumor fragment; type: cell-based; conditions: 300 nM, day 8
# Protocol: Neo-angiogenesis was studied in vitro by culturing rings of mouse thoracic aorta in 3-dimensional collagen gels, as previously described (2), but the mouse serum was replaced by a piece of 4T1 tumor. Briefly, 1 mm-long aortic ring-shaped fragments of 9-week old C57Bl/6J mice, and 1 mm^3 4T1 tumor pieces resected 21 days after orthotopic injection in mammary fat pad of BALB/c mice were embedded in a rat tail interstitial collagen gel (1.5 mg/mL). It was prepared by mixing 7.5 volumes of 2 mg/mL collagen (Collagen R, Serva), 1 volume of 10 x minimum essential medium (MEM, Life Technologies Ltd.), 1.5 volumes of NaHCO3 (15.6 mg/mL), and 0.1 volume 1 M NaOH to adjust the pH to 7.4. The collagen gels containing the aortic rings were polymerized in cylindrical agarose wells, and kept in triplicate at 37 °C in 60 mm diameter Petri dishes (bacteriological polystyrene; Falcon, Becton Dickinson). Each dish contained 6 mL of MCDB131 (Life Technologies Ltd.) supplemented with 25 mM NaHCO3, 1 % glutamine, 100 U/mL penicillin, and 100 µg/mL streptomycin. The cultures were kept at 37 °C in a humidified environment for 8 days and examined every other day with a Nikon microscope at appropriate magnification. […] Quantification of pseudo-tubules was performed at day 8 using an automated computer-assisted image analysis system (Morpho Expert V2.50, Explora Nova, La Rochelle, France). […]
structure (smiles),measurement,setting,value
CCn1c(N)c(-c2ncc[nH]2)c(=O)c2ccc(C#C[C@@](C)(O)COC)nc21 [EVT801],pIC50,"hLMVEC; read-out: IC50, inhibition of VEGF-A-induced hLMVEC proliferation",6.81
same,pIC50,"hLMVEC; read-out: IC50, inhibition of VEGF-C-induced hLMVEC proliferation",7.82
same,pIC50,"hLMVEC; read-out: IC50, inhibition of VEGF-D-induced hLMVEC proliferation",8.10
same,maximum inhibition of VEGF-A-induced hLMVEC proliferation,hLMVEC; VEGF-A,65%
same,maximum inhibition of VEGF-C-induced hLMVEC proliferation,hLMVEC; VEGF-C,74%
same,maximum inhibition of VEGF-D-induced hLMVEC proliferation,hLMVEC; VEGF-D,100%
same,reduction of ERK phosphorylation induced by VEGF-C and VEGF-D,ERK phosphorylation,better than pazopanib
same,"T/C ratio, tumor volume",DEN-induced liver tumor,22%
same,liver weight,DEN-induced liver tumor,fully prevented the increase in liver weight
same,"T/C ratio, tumor volume","CT26 tumors; BALB/c mice, EVT801 30 mg/kg twice per day, anti-PD-1 twice per week, or both",55%
same,reduction of hypoxyprobe-positive areas compared with vehicle,"CT26 tumors; end of treatment, not statistically significant",42%
same,intratumor infiltrated CD8+ cells,"4T1 tumors; endpoint, not statistically significant",globally doubled
same,"T/C ratio, tumor volume","4T1 tumors; orthotopic, 2 weeks, EVT801 30 mg/kg twice per day and/or anti-PD-1 twice per week",43%
same,tubule formation (tubule length),tubule formation,prevents tumor-induced tubule formation almost completely
